Test results reported in PubChem BioAssay AID1963846 (Molecular Pharmacology Branch, DTP, NCI, 2024).

Test system: 454973-116-R2-J3-PDC complex spheroid viability
Experiment: Anticancer human tumor 454973-116-R2-J3-PDC patient-derived pancreatic carcinoma cell line growth inhibition [POLQ]
Settings: for IC50: curve of first compound; for viability, T/C: stronger effect = lower value
Outline: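 Growth inhibition in 3D: complex spheroids (tumor PDC, HUVEC, MSC) treated with POLQ inhibitor combinations; where Cmax unknown, highest tested concentration 10 microM, except SN-38 at 1 microM.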

[1] = second compound 0.0316 µM, first compound 0.0316 µM
[2] = second compound 0.0316 µM, first compound 0.1 µM
[3] = second compound 0.0316 µM, first compound 0.316 µM
[4] = second compound 0.0316 µM, first compound 1 µM
[5] = second compound 0.0316 µM, first compound 3.16 µM
[6] = second compound 0.0316 µM, first compound 10 µM
[7] = second compound 0.1 µM, first compound 0.0316 µM
[8] = second compound 0.1 µM, first compound 0.1 µM
[9] = second compound 0.1 µM, first compound 0.316 µM
[10] = second compound 0.1 µM, first compound 1 µM
[11] = second compound 0.1 µM, first compound 3.16 µM
[12] = second compound 0.1 µM, first compound 10 µM
[13] = second compound 0.316 µM, first compound 0.0316 µM
[14] = second compound 0.316 µM, first compound 0.1 µM
[15] = second compound 0.316 µM, first compound 0.316 µM
[16] = second compound 0.316 µM, first compound 1 µM
[17] = second compound 0.316 µM, first compound 3.16 µM
[18] = second compound 0.316 µM, first compound 10 µM
[19] = second compound 1 µM, first compound 0.0316 µM
[20] = second compound 1 µM, first compound 0.1 µM
[21] = second compound 1 µM, first compound 0.316 µM
[22] = second compound 1 µM, first compound 1 µM
[23] = second compound 1 µM, first compound 3.16 µM
[24] = second compound 1 µM, first compound 10 µM
[25] = second compound 3.16 µM, first compound 0.0316 µM
[26] = second compound 3.16 µM, first compound 0.1 µM
[27] = second compound 3.16 µM, first compound 0.316 µM
[28] = second compound 3.16 µM, first compound 1 µM
[29] = second compound 3.16 µM, first compound 3.16 µM
[30] = second compound 3.16 µM, first compound 10 µM
[31] = second compound 10 µM, first compound 0.0316 µM
[32] = second compound 10 µM, first compound 0.1 µM
[33] = second compound 10 µM, first compound 0.316 µM
[34] = second compound 10 µM, first compound 1 µM
[35] = second compound 10 µM, first compound 3.16 µM
[36] = second compound 10 µM, first compound 10 µM
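Further: spheroids exposed to drugs for seven days before measurement.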
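Wherever viability, T/C is given: percent viability relative to DMSO vehicle control wells taken as 100%.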

**Q.** Which IC50 (second compound 0.0316 µM) does the source give for `COc1cc2cc(C(=O)CCC(=O)O)sc2cc1OC` + Nc1ccc(C#CCN(C(=O)Cc2ncc(C(F)(F)F)cc2C(F)(F)F)c2ccc(F)cc2)nn1 here?
**A.** > 10 µM

**Q.** What about the IC50 (second compound 0.1 µM) of the same compound?
**A.** > 10 µM

**Q.** What about the IC50 (second compound 0.316 µM) of the same compound?
**A.** > 10 µM

**Q.** What about the IC50 (second compound 1 µM) of the same compound?
**A.** > 10 µM

**Q.** What about the IC50 (second compound 3.16 µM) of the same compound?
**A.** > 10 µM

**Q.** What about the IC50 (second compound 10 µM) of the same compound?
**A.** > 10 µM

**Q.** What about the viability, T/C [1] of the same compound?
**A.** 96.7%

**Q.** And the viability, T/C [2]?
**A.** 101%

**Q.** What about the viability, T/C [3] of the same compound?
**A.** 112%

**Q.** And the viability, T/C [4]?
**A.** 101%

**Q.** What about the viability, T/C [5] of the same compound?
**A.** 107%

**Q.** And the viability, T/C [6]?
**A.** 98.9%

**Q.** What about the viability, T/C [7] of the same compound?
**A.** 98.2%

**Q.** What about the viability, T/C [8] of the same compound?
**A.** 103%

**Q.** And the viability, T/C [9]?
**A.** 100%

**Q.** And the viability, T/C [10]?
**A.** 105%

**Q.** What about the viability, T/C [11] of the same compound?
**A.** 107%

**Q.** What about the viability, T/C [12] of the same compound?
**A.** 104%

**Q.** What about the viability, T/C [13] of the same compound?
**A.** 93.8%

**Q.** And the viability, T/C [14]?
**A.** 101%

**Q.** And the viability, T/C [15]?
**A.** 107%

**Q.** What about the viability, T/C [16] of the same compound?
**A.** 104%

**Q.** And the viability, T/C [17]?
**A.** 111%

**Q.** And the viability, T/C [18]?
**A.** 94.3%

**Q.** What about the viability, T/C [19] of the same compound?
**A.** 110%

**Q.** What about the viability, T/C [20] of the same compound?
**A.** 103%

**Q.** And the viability, T/C [21]?
**A.** 106%

**Q.** What about the viability, T/C [22] of the same compound?
**A.** 122%

**Q.** What about the viability, T/C [23] of the same compound?
**A.** 108%

**Q.** And the viability, T/C [24]?
**A.** 99.2%

**Q.** And the viability, T/C [25]?
**A.** 118%

**Q.** What about the viability, T/C [26] of the same compound?
**A.** 110%

**Q.** What about the viability, T/C [27] of the same compound?
**A.** 113%

**Q.** What about the viability, T/C [28] of the same compound?
**A.** 109%

**Q.** And the viability, T/C [29]?
**A.** 116%

**Q.** And the viability, T/C [30]?
**A.** 107%

**Q.** What about the viability, T/C [31] of the same compound?
**A.** 115%

**Q.** And the viability, T/C [32]?
**A.** 114%

**Q.** What about the viability, T/C [33] of the same compound?
**A.** 118%

**Q.** And the viability, T/C [34]?
**A.** 117%

**Q.** And the viability, T/C [35]?
**A.** 119%

**Q.** What about the viability, T/C [36] of the same compound?
**A.** 105%

**Q.** Which results are given for `CCc1cc2c(N3CCc4c(cc(Cn5ccnc5)cc4-c4cn(C)nc4C(F)(F)F)C3=O)cc(C)nc2c(OC)n1` + COC1C(OC(N)=O)C(O)C(Oc2ccc3c(O)c(NC(=O)c4ccc(O)c(CC=C(C)C)c4)c(=O)oc3c2C)OC1(C)C?
**A.** IC50 (second compound 0.0316 µM): > 10 µM; IC50 (second compound 0.1 µM): > 10 µM; IC50 (second compound 0.316 µM): > 10 µM; IC50 (second compound 1 µM): > 10 µM; IC50 (second compound 3.16 µM): > 10 µM; IC50 (second compound 10 µM): > 10 µM; viability, T/C [1]: 111%; viability, T/C [2]: 93.7%; viability, T/C [3]: 91.5%; viability, T/C [4]: 87.9%; viability, T/C [5]: 87.2%; viability, T/C [6]: 75.1%; viability, T/C [7]: 94.1%; viability, T/C [8]: 107%; viability, T/C [9]: 95.2%; viability, T/C [10]: 91.2%; viability, T/C [11]: 81%; viability, T/C [12]: 71%; viability, T/C [13]: 101%; viability, T/C [14]: 103%; viability, T/C [15]: 91.8%; viability, T/C [16]: 94.1%; viability, T/C [17]: 83.6%; viability, T/C [18]: 73.2%; viability, T/C [19]: 110%; viability, T/C [20]: 95%; viability, T/C [21]: 105%; viability, T/C [22]: 98%; viability, T/C [23]: 84.7%; viability, T/C [24]: 76.3%; viability, T/C [25]: 109%; viability, T/C [26]: 102%; viability, T/C [27]: 93.9%; viability, T/C [28]: 88.2%; viability, T/C [29]: 85.9%; viability, T/C [30]: 70.3%; viability, T/C [31]: 103%; viability, T/C [32]: 90.5%; viability, T/C [33]: 89.6%; viability, T/C [34]: 85.3%; viability, T/C [35]: 84%; viability, T/C [36]: 67.6%

**Q.** How did the IC50 (second compound 0.0316 µM) turn out when `COc1cccc(OCCCN)c1-c1cc(Nc2cnc(C#N)cn2)n[nH]1` + Nc1ccc(C#CCN(C(=O)Cc2ncc(C(F)(F)F)cc2C(F)(F)F)c2ccc(F)cc2)nn1 was run?
**A.** 0.0156 µM

**Q.** What about the IC50 (second compound 0.1 µM) of the same compound?
**A.** 0.0136 µM

**Q.** And the IC50 (second compound 0.316 µM)?
**A.** 0.0143 µM

**Q.** What about the IC50 (second compound 1 µM) of the same compound?
**A.** 0.0139 µM

**Q.** What about the IC50 (second compound 3.16 µM) of the same compound?
**A.** 0.0137 µM

**Q.** And the IC50 (second compound 10 µM)?
**A.** 0.0116 µM

**Q.** And the viability, T/C (second compound 0.0316 µM, first compound 0.00316 µM)?
**A.** 100%

**Q.** And the viability, T/C (second compound 0.0316 µM, first compound 0.01 µM)?
**A.** 76.6%

**Q.** What about the viability, T/C [1] of the same compound?
**A.** 7.44%

**Q.** What about the viability, T/C [2] of the same compound?
**A.** 5.67%

**Q.** What about the viability, T/C [3] of the same compound?
**A.** 5.56%

**Q.** And the viability, T/C [4]?
**A.** 4.28%

**Q.** What about the viability, T/C (second compound 0.1 µM, first compound 0.00316 µM) of the same compound?
**A.** 101%

**Q.** What about the viability, T/C (second compound 0.1 µM, first compound 0.01 µM) of the same compound?
**A.** 63.5%

**Q.** What about the viability, T/C [7] of the same compound?
**A.** 12.7%

**Q.** And the viability, T/C [8]?
**A.** 6.65%

**Q.** What about the viability, T/C [9] of the same compound?
**A.** 5.32%

**Q.** And the viability, T/C [10]?
**A.** 4.22%

**Q.** And the viability, T/C (second compound 0.316 µM, first compound 0.00316 µM)?
**A.** 110%

**Q.** What about the viability, T/C (second compound 0.316 µM, first compound 0.01 µM) of the same compound?
**A.** 67.2%

**Q.** What about the viability, T/C [13] of the same compound?
**A.** 11.2%

**Q.** What about the viability, T/C [14] of the same compound?
**A.** 7.21%

**Q.** What about the viability, T/C [15] of the same compound?
**A.** 5.08%

**Q.** And the viability, T/C [16]?
**A.** 4.5%

**Q.** And the viability, T/C (second compound 1 µM, first compound 0.00316 µM)?
**A.** 99.7%

**Q.** And the viability, T/C (second compound 1 µM, first compound 0.01 µM)?
**A.** 67.3%

**Q.** What about the viability, T/C [19] of the same compound?
**A.** 6.4%

**Q.** What about the viability, T/C [20] of the same compound?
**A.** 5.68%

**Q.** And the viability, T/C [21]?
**A.** 5.11%

**Q.** And the viability, T/C [22]?
**A.** 3.75%

**Q.** What about the viability, T/C (second compound 3.16 µM, first compound 0.00316 µM) of the same compound?
**A.** 101%

**Q.** What about the viability, T/C (second compound 3.16 µM, first compound 0.01 µM) of the same compound?
**A.** 66.7%

**Q.** What about the viability, T/C [25] of the same compound?
**A.** 5.97%

**Q.** And the viability, T/C [26]?
**A.** 5.07%

**Q.** What about the viability, T/C [27] of the same compound?
**A.** 5.91%

**Q.** What about the viability, T/C [28] of the same compound?
**A.** 4.97%

**Q.** And the viability, T/C (second compound 10 µM, first compound 0.00316 µM)?
**A.** 113%

**Q.** And the viability, T/C (second compound 10 µM, first compound 0.01 µM)?
**A.** 56.4%

**Q.** What about the viability, T/C [31] of the same compound?
**A.** 5.54%

**Q.** And the viability, T/C [32]?
**A.** 5.59%

**Q.** What about the viability, T/C [33] of the same compound?
**A.** 5.26%

**Q.** And the viability, T/C [34]?
**A.** 4.7%
